Measurements from ChEMBL document CHEMBL1201862, “PubChem BioAssay data set” (2004).
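Briefly, cells in 96-well plates were exposed to five compound concentrations for 48 h, and endpoints were estimated by linear interpolation. GI50: concentration for 50% inhibition of growth.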 The source made the active and inactive calls. Rule as the data show it: active = GI50 up to about 1.1 µM and inactive = higher.

What was measured:
Assay in all cases: NCI tumour cell line growth inhibition, 48 h
786-0 = test system: 786-0
A498 = test system: A498
A549 = test system: A549
ACHN = test system: ACHN
BT-549 = test system: BT-549
CAKI-1 = test system: CAKI-1
CCRF-CEM = test system: CCRF-CEM
COLO 205 = test system: COLO 205
DU-145 = test system: DU-145
EKVX = test system: EKVX
HCT-116 = test system: HCT-116
HCT-15 = test system: HCT-15
HL-60 = test system: HL-60
HOP-62 = test system: HOP-62
HOP-92 = test system: HOP-92
HT-29 = test system: HT-29
Hs-578T = test system: Hs-578T
IGROV-1 = test system: IGROV-1
K562 = test system: K562
KM12 = test system: KM12
LOX IMVI = test system: LOX IMVI
M14 = test system: M14
MCF7 = test system: MCF7
MDA-MB-231 = test system: MDA-MB-231
MDA-MB-435 = test system: MDA-MB-435
MDA-N = test system: MDA-N
MOLT-4 = test system: MOLT-4
Malme-3M = test system: Malme-3M
NCI-H226 = test system: NCI-H226
NCI-H23 = test system: NCI-H23
NCI-H522 = test system: NCI-H522
NCI/ADR-RES = test system: NCI/ADR-RES
OVCAR-3 = test system: OVCAR-3
OVCAR-4 = test system: OVCAR-4
OVCAR-5 = test system: OVCAR-5
OVCAR-8 = test system: OVCAR-8
PC-3 = test system: PC-3
RPMI-8226 = test system: RPMI-8226
SF-268 = test system: SF-268
SF-295 = test system: SF-295
SF-539 = test system: SF-539
SK-MEL-28 = test system: SK-MEL-28
SK-MEL-2 = test system: SK-MEL-2
SK-MEL-5 = test system: SK-MEL-5
SK-OV-3 = test system: SK-OV-3
SN12C = test system: SN12C
SNB-19 = test system: SNB-19
SR = test system: SR
SW-620 = test system: SW-620
T47D = test system: T47D
U-251 = test system: U-251
UACC-62 = test system: UACC-62
UO-31 = test system: UO-31
NCI-H460 = test system: NCI-H460
RXF 393 = test system: RXF 393
TK-10 = test system: TK-10
UACC-257 = test system: UACC-257
HCC 2998 = test system: HCC 2998
SNB-75 = test system: SNB-75

`C=CCN(C(=O)OC(C)(C)C)[C@H](C)C(=O)N[C@@H](C)C(=O)OC` was tested, and the GI50 (786-0) was > 100 µM (inactive), the GI50 (A498) was > 100 µM (inactive) and the GI50 (A549) was > 100 µM (inactive). For the same molecule, the GI50 (ACHN) was > 100 µM (inactive), the GI50 (BT-549) was > 100 µM (inactive) and the GI50 (CAKI-1) was > 100 µM (inactive). For the same molecule, the GI50 (CCRF-CEM) was 36 µM (inactive), the GI50 (COLO 205) was > 100 µM (inactive) and the GI50 (DU-145) was > 100 µM (inactive). The GI50 (EKVX) was > 100 µM (inactive), the GI50 (HCT-116) was > 100 µM (inactive) and the GI50 (HCT-15) was over 100 µM. For the same molecule, the GI50 (HL-60) was 1.2 µM (inactive), the GI50 (HOP-62) was > 100 µM (inactive) and the GI50 (HOP-92) was > 100 µM (inactive). For the same molecule, the GI50 (HT-29) was > 100 µM (inactive), the GI50 (Hs-578T) was > 100 µM (inactive) and the GI50 (IGROV-1) was > 100 µM (inactive). The GI50 (K562) was > 100 µM (inactive), the GI50 (KM12) was > 100 µM (inactive) and the GI50 (LOX IMVI) was > 100 µM (inactive). The GI50 (M14) was > 100 µM (inactive), the GI50 (MCF7) was > 100 µM (inactive) and the GI50 (MDA-MB-231) was > 100 µM (inactive). For the same molecule, the GI50 (MDA-MB-435) was > 100 µM (inactive), the GI50 (MDA-N) was > 100 µM (inactive) and the GI50 (MOLT-4) was > 100 µM (inactive). The GI50 (Malme-3M) was > 100 µM (inactive), the GI50 (NCI-H226) was > 100 µM (inactive) and the GI50 (NCI-H23) was > 100 µM (inactive). For the same molecule, the GI50 (NCI-H522) was > 100 µM (inactive), the GI50 (NCI/ADR-RES) was > 100 µM (inactive) and the GI50 (OVCAR-3) was > 100 µM (inactive). For the same molecule, the GI50 (OVCAR-4) was > 100 µM (inactive), the GI50 (OVCAR-5) was > 100 µM (inactive) and the GI50 (OVCAR-8) was > 100 µM (inactive). The GI50 (PC-3) was > 100 µM (inactive), the GI50 (RPMI-8226) was > 100 µM (inactive) and the GI50 (SF-268) was > 100 µM (inactive). The GI50 (SF-295) was > 100 µM (inactive), the GI50 (SF-539) was > 100 µM (inactive) and the GI50 (SK-MEL-28) was > 100 µM (inactive). The GI50 (SK-MEL-2) was > 100 µM (inactive), the GI50 (SK-MEL-5) was > 100 µM (inactive) and the GI50 (SK-OV-3) was > 100 µM (inactive). For the same molecule, the GI50 (SN12C) was > 100 µM (inactive), the GI50 (SNB-19) was > 100 µM (inactive) and the GI50 (SR) was > 100 µM (inactive). For the same molecule, the GI50 (SW-620) was > 100 µM (inactive), the GI50 (T47D) was > 100 µM (inactive) and the GI50 (U-251) was > 100 µM (inactive). For the same molecule, the GI50 (UACC-62) was > 100 µM (inactive) and the GI50 (UO-31) was > 100 µM (inactive).
`Cc1cc(C)c2c(=O)n(CN3CC4Nc5ccccc5C4C3)sc2n1` (configuration not stated) was tested, and the GI50 (786-0) was 17.2 µM (inactive), the GI50 (A498) was 37.9 µM (inactive) and the GI50 (A549) was 38.5 µM (inactive). The GI50 (ACHN) was 17.9 µM (inactive), the GI50 (BT-549) was 31.2 µM (inactive) and the GI50 (CAKI-1) was 21 µM (inactive). The GI50 (CCRF-CEM) was 22 µM (inactive), the GI50 (COLO 205) was 26.1 µM (inactive) and the GI50 (DU-145) was 21.1 µM (inactive). The GI50 (EKVX) was 26.9 µM (inactive), the GI50 (HCT-116) was 20.4 µM (inactive) and the GI50 (HCT-15) was 21 µM. The GI50 (HL-60) was 25.6 µM (inactive), the GI50 (HOP-62) was 35.6 µM (inactive) and the GI50 (HOP-92) was 38.5 µM (inactive). For the same molecule, the GI50 (HT-29) was 21.3 µM (inactive), the GI50 (Hs-578T) was 16.6 µM (inactive) and the GI50 (IGROV-1) was > 100 µM (inactive). For the same molecule, the GI50 (K562) was 27.9 µM (inactive), the GI50 (KM12) was > 100 µM (inactive) and the GI50 (LOX IMVI) was 21.8 µM (inactive). The GI50 (M14) was 23.8 µM (inactive), the GI50 (MCF7) was 32.1 µM (inactive) and the GI50 (MDA-MB-231) was 18.7 µM (inactive). The GI50 (MDA-MB-435) was 19.5 µM (inactive), the GI50 (MDA-N) was 19.5 µM (inactive) and the GI50 (MOLT-4) was 29.6 µM (inactive). For the same molecule, the GI50 (Malme-3M) was 11.7 µM (inactive), the GI50 (NCI-H226) was 20.8 µM (inactive) and the GI50 (NCI-H23) was 22 µM (inactive). The GI50 (NCI-H460) was 20.9 µM (inactive), the GI50 (NCI-H522) was 4.19 µM (inactive) and the GI50 (NCI/ADR-RES) was 35.6 µM (inactive). The GI50 (OVCAR-3) was 33.5 µM (inactive), the GI50 (OVCAR-4) was 21 µM (inactive) and the GI50 (OVCAR-5) was 21 µM (inactive). For the same molecule, the GI50 (OVCAR-8) was 21.2 µM (inactive), the GI50 (PC-3) was 21.3 µM (inactive) and the GI50 (RPMI-8226) was 11.3 µM (inactive). The GI50 (RXF 393) was 22.8 µM (inactive), the GI50 (SF-268) was 14.8 µM (inactive) and the GI50 (SF-295) was > 100 µM (inactive). The GI50 (SF-539) was 19.9 µM (inactive), the GI50 (SK-MEL-28) was 22.1 µM (inactive) and the GI50 (SK-MEL-2) was 22.5 µM (inactive). For the same molecule, the GI50 (SK-MEL-5) was 30.2 µM (inactive), the GI50 (SK-OV-3) was 56 µM (inactive) and the GI50 (SN12C) was 30.7 µM (inactive). The GI50 (SNB-19) was 65.9 µM (inactive), the GI50 (SR) was 23.6 µM (inactive) and the GI50 (SW-620) was 22.8 µM (inactive). For the same molecule, the GI50 (T47D) was 81.8 µM (inactive), the GI50 (TK-10) was 19.4 µM (inactive) and the GI50 (U-251) was 31.3 µM (inactive). The GI50 (UACC-257) was 15.5 µM (inactive), the GI50 (UACC-62) was 23.8 µM (inactive) and the GI50 (UO-31) was 16.3 µM (inactive).
For `O=C(OCCN=C1c2ccccc2CCc2ccccc21)c1ccccc1`, the GI50 (786-0) was > 100 µM (inactive), the GI50 (A549) was > 100 µM (inactive) and the GI50 (ACHN) was > 100 µM (inactive). The GI50 (BT-549) was > 100 µM (inactive), the GI50 (CAKI-1) was > 100 µM (inactive) and the GI50 (CCRF-CEM) was > 100 µM (inactive). For the same molecule, the GI50 (COLO 205) was > 100 µM (inactive), the GI50 (DU-145) was > 100 µM (inactive) and the GI50 (EKVX) was > 100 µM (inactive). The GI50 (HCC 2998) was > 100 µM (inactive), the GI50 (HCT-116) was > 100 µM (inactive) and the GI50 (HCT-15) was over 100 µM. For the same molecule, the GI50 (HL-60) was > 100 µM (inactive), the GI50 (HOP-62) was > 100 µM (inactive) and the GI50 (HOP-92) was > 100 µM (inactive). The GI50 (HT-29) was > 100 µM (inactive), the GI50 (Hs-578T) was > 100 µM (inactive) and the GI50 (IGROV-1) was > 100 µM (inactive). For the same molecule, the GI50 (K562) was > 100 µM (inactive), the GI50 (KM12) was > 100 µM (inactive) and the GI50 (LOX IMVI) was > 100 µM (inactive). The GI50 (M14) was > 100 µM (inactive), the GI50 (MCF7) was > 100 µM (inactive) and the GI50 (MDA-MB-231) was > 100 µM (inactive). For the same molecule, the GI50 (MDA-MB-435) was > 100 µM (inactive), the GI50 (MDA-N) was > 100 µM (inactive) and the GI50 (MOLT-4) was 15.2 µM (inactive). The GI50 (Malme-3M) was > 100 µM (inactive), the GI50 (NCI-H226) was 53.1 µM (inactive) and the GI50 (NCI-H23) was > 100 µM (inactive). The GI50 (NCI-H460) was > 100 µM (inactive), the GI50 (NCI/ADR-RES) was > 100 µM (inactive) and the GI50 (OVCAR-3) was > 100 µM (inactive). The GI50 (OVCAR-4) was > 100 µM (inactive), the GI50 (OVCAR-5) was > 100 µM (inactive) and the GI50 (OVCAR-8) was > 100 µM (inactive). The GI50 (PC-3) was > 100 µM (inactive), the GI50 (RPMI-8226) was 13 µM (inactive) and the GI50 (RXF 393) was > 100 µM (inactive). For the same molecule, the GI50 (SF-268) was > 100 µM (inactive), the GI50 (SF-295) was > 100 µM (inactive) and the GI50 (SF-539) was > 100 µM (inactive). For the same molecule, the GI50 (SK-MEL-28) was > 100 µM (inactive), the GI50 (SK-MEL-2) was > 100 µM (inactive) and the GI50 (SK-MEL-5) was > 100 µM (inactive). The GI50 (SK-OV-3) was > 100 µM (inactive), the GI50 (SN12C) was > 100 µM (inactive) and the GI50 (SNB-19) was > 100 µM (inactive). For the same molecule, the GI50 (SNB-75) was > 100 µM (inactive), the GI50 (SR) was 18 µM (inactive) and the GI50 (SW-620) was > 100 µM (inactive). For the same molecule, the GI50 (T47D) was > 100 µM (inactive), the GI50 (TK-10) was > 100 µM (inactive) and the GI50 (U-251) was > 100 µM (inactive). For the same molecule, the GI50 (UACC-257) was > 100 µM (inactive), the GI50 (UACC-62) was > 100 µM (inactive) and the GI50 (UO-31) was > 100 µM (inactive).
